Results from patent US10973778B2, “Using edible carriers to produce Curcuma extracts for oral and topical use” (California Northstate College of Pharmacy, LLC, priority 2012, dated 2021).

Experiment: UV absorption spectra of sunscreen agents and Curcuma longa L. extract
Format: physicochemical
Conditions: absorption spectrum in methanol; for wavelength above which absorption is practically zero / practically no absorption: 0.5-20 ug/ml depending on agent (FIGS. 1A-1D); for wavelength above which absorption is low / very low: octocrylene 0.5 ug/ml, avobenzone 5 ug/ml (FIGS. 1B, 1E)
Excerpt: FIGS. 1A-1F compare the absorption spectra of representative current state-of-the-art sunscreen agents to the absorption spectra of Curcuma longa L., according to some embodiments.
The representative sunscreen agents show peaks in the absorption spectrum between the wavelengths of 290 nm to 400 nm which is the range of interest. Ideally, a desired agent would absorb energy across the entire range of 290 nm to 400 nm. In FIGS. 1A-1E, for example, a variety of peak positions are seen in the representative agents, where a high (desirable) absorption can be shown at the wavelength of the peak but there is usually a low or zero absorption at the trough, which is, of course, undesirable. Even combinations of sunscreen agents with peaks and troughs may leave areas within the wavelength range that are not covered, leaving wavelengths for which there is little or no UV protection, an undesirable situation.

wavelength above which absorption is practically zero / practically no absorption	wavelength above which absorption is low / very low	Compound
about 340 nm		CC1CC(OC(=O)c2ccccc2O)CC(C)(C)C1 (centres unmarked) [homosalate]
	about 390 nm	COc1ccc(C(=O)CC(=O)c2ccc(C(C)(C)C)cc2)cc1 [avobenzone]
about 380 nm	about 370 nm	CCCCC(CC)COC(=O)C(C#N)=C(c1ccccc1)c1ccccc1 (centres unmarked) [octocrylene]
about 380 nm		COc1ccc(C(=O)c2ccccc2)c(O)c1 [oxybenzone]
